Results on three compounds are retold here after patent US4977181A, “Tromethamine salt of 1-methyl-beta-oxo-alpha-(phenylcarbamoyl)-2-pyrrolepropionitrile” (priority 1989, dated 1990).

The test system of one series is Sprague-Dawley rats. The series can be described thus: Acute Toxicity Study (single oral dose, mortality). It counts as in vivo, rat (Sprague-Dawley). The conditions noted are these: for Mortality, Female / Mortality, Male: single oral gavage, observed for 15 days; for Mortality, Female: female rats; for Mortality, Male: male rats. The procedure:
(§1) A single equimolar dose of each compound is administered orally by gavage as a 3% corn starch suspension to 5 female and 5 male Sprague-Dawley rats. The animals are there observed for 15 days.
(§2) The comparative incidence of mortality for the free acid of formula I, the triethanolamine salt thereof and the tromethamine salt of formula II are as follows: […]

Series [1] in a line: antiinflammatory activity. It counts as in vivo. To be noted: in words. As to the method: The compound can be administered to the animals either enterally, preferably orally, parenterally, e.g. subcutaneously or intravenously, or topically, for example, in the form of aqueous solutions or suspensions. The applied dosage may range between about 0.1 and 100 mg/kg/day, preferably between about 1 and 50 mg/kg/day. The tests include the classical in vivo assay methods for said activities, such as the carrageenin paw-edema, adjuvant arthritis tests in rats, and the canine synovitis test.

The subject of the next series is cartilage matrix. The series can be described thus: inhibition of cartilage matrix degradation. The conditions noted are these: in words. It counts as cell-based, bovine. As to the method:
The effect on cartilage matrix degradation can be determined in the cartilage-synovium co-culture model of matrix degradation which is carried out as follows:
The proteoglycan matrix of bovine nasal septum cartilage is labeled in vitro by incorporation of ^35 S into glycosaminoglycan. Cartilage slices are incubated overnight in a sulfate-free medium containing ^35 S-sodium sulfate. ^35 S-Labeled cartilage slices are co-cultured with normal synovium explants in multiwell tissue culture plates. After 4 days incubation a 100 μl aliquot of medium is counted. Cartilage slices are hydrolyzed and a 100 μl aliquot of cartilage hydrolysate is counted. The percent ^35 S released into the medium is determined and the percent of inhibition of matrix degradation is calculated.

For another series, the system named is cell-mediated immunity. The series is described as follows: enhancement of depressed cell-mediated immunity. It counts as in vivo, rat. The conditions noted are these: in words. As to the method: Immunopotentiating effects can be determined in BCG-immunized animals. In vitro, the enhancement of cell-mediated immunity is determined by measuring the increase in chemotaxis of macrophages isolated from BCG-immunized rats. In vivo, such is determined in the BCG-immunized adjuvant arthritic rat by measuring the effect on delayed hypersensitivity reaction essentially as described in Current Therapeutic Research 30, S34 (1981).

Series [2] is described as follows: tolerability at therapeutically effective doses. It counts as in vivo.
The nature of series [3]: Acute Toxicity Study (single oral dose, mortality). It counts as in vivo, rat (Sprague-Dawley). To be noted: rat, in vivo, po, 2400 umol/kg, 2.4 millimoles/Kg p.o., rat, both sexes; read-out: mortality rate. As to the method:
as §1, §2

The mark [4] stands for this setting: 2.4 Millimoles/Kg, listed as II.
Where [5] appears, read: 3.6 Millimoles/Kg, listed as II.

Structures are written as SMILES. Counter-ions that a name gives are not always drawn.

For `Cn1cccc1C(=O)C(C#N)C(=O)Nc1ccccc1` (stereo not drawn) [formula I, 1-methyl-beta-oxo-alpha-phenylcarbamoyl-2-pyrrolepropionitrile], the “Mortality, Female” value in the series on Sprague-Dawley rats (1.2 Millimoles/Kg) is given as 0/5; in the series with Sprague-Dawley rats (2.4 Millimoles/Kg, listed as I), 2/5; with Sprague-Dawley rats (3.6 Millimoles/Kg, listed as I), 4/5. Besides, the “Mortality, Male” value in the series on Sprague-Dawley rats (1.2 Millimoles/Kg) is 0/5; in the series with Sprague-Dawley rats (2.4 Millimoles/Kg, listed as I) it was 2/5; with Sprague-Dawley rats (3.6 Millimoles/Kg, listed as I), 4/5. Further, the mortality rate in the series with Sprague-Dawley rats (2.4 millimoles/Kg p.o., rat, both sexes, 21600 min) is on record as 40%.

With `Cn1cccc1C(=O)C(C#N)C(=O)Nc1ccccc1` (stereo not drawn) [formula II, 1-methyl-beta-oxo-alpha-(phenylcarbamoyl)-2-pyrrolepropionitrile (1:1) tromethamine salt], in the series with Sprague-Dawley rats (setting [4]), the “Mortality, Female” value is 0/5 and the “Mortality, Male” value is 0/5. In addition, in the series on Sprague-Dawley rats (2.4 millimoles/Kg p.o., rat, both sexes), the “deaths (animals)” value is listed as 0/10. In the series with Sprague-Dawley rats (setting [5]), the “Mortality, Female” value is reported as 5/5 and the “Mortality, Male” value was 5/5. The “acute toxicity compared with free acid of formula I or the triethanolamine salt” value in the series on Sprague-Dawley rats (rat, in words) was “less toxic than the free acid of formula I or the triethanolamine salt thereof”. The antiinflammatory activity entry in series [1] is reported as “displays antiinflammatory”. In the series on cartilage matrix, the “inhibition of cartilage matrix degradation” value is recorded as “inhibition of cartilage matrix degradation”. The “enhancement of depressed cell-mediated immunity” value in the series on cell-mediated immunity is recorded as “enhancement of depressed cell-mediated immunity”. Further, in series [2], the tolerability entry is recorded as “well tolerated” and the undesirable side effects entry is on record as “essentially free of undesirable side effects”.

As to `Cn1cccc1C(=O)C(C#N)C(=O)Nc1ccccc1` (stereo not drawn) [triethanolamine salt, triethanolamine salt of 1-methyl-beta-oxo-alpha-(phenylcarbamoyl)-2-propionitrile], in series [3], the mortality at 360 h amounted to 50%. In the series with Sprague-Dawley rats (2.4 Millimoles/Kg), the “Mortality, Female” value is on record as 3/5 and the “Mortality, Male” value is on record as 2/5. In the series on Sprague-Dawley rats (3.6 Millimoles/Kg), the “Mortality, Female” value is 5/5 and the “Mortality, Male” value is given as 5/5.
